Experimental data: patent US4434151A, “Bifunctional chelating agents” (Medi-Physics, Inc., priority 1982, dated 1984)

How the values were obtained:
[1] = Gamma camera imaging / regional areas of interest in rabbits after intravenous administration; type: in vivo, rabbits (New Zealand White); settings: i.v.; for Gamma camera count densities (RAI): rabbits
Description: (§1) The ^99m Tc complex used for the animal studies was prepared in Example 6 following both methods of reduction, stannous chloride or dithionite. The ^99m Tc-MGHA complexes labeled by either reduction method were tested in animals. The mass concentrations of the ^99m Tc complex administered to test animals were approximately 0.04 mg/kg body weight for rabbits and 13.0 mg/kg body weight for mice. The radioactivity administered to rabbits and mice were about 0.5 mCi and 1.5 mCi respectively. The pH of the injectant solution was approximately 5 to 6.
Nonanesthetized and nonfasted male rabbits (New Zealand White) weighing 3.0-3.5 kg were restrained in dorsal recumbancy approximately 2-3 cm from the face of the gamma camera. After intravenous administration of 0.1 mL of the ^99m Tc-labeled complex solution in the marginal ear vein, anterior images were stored by a dedicated computer during injection, and 5, 10, 15, 20 and 30 minutes following administration.
The ^99m Tc-complex prepared via a dithionate reduction of Example 6 was administered to male albino rabbits weighing 3.0-3.5 kg. The drug was injected into the marginal ear vein. The mass of drug administered was equivalent to ~0.04 mg/kg while the volume injected was 0.1 mL. The administered dose was ~0.5 mCi. Each test animal was restrained in dorsal recumbancy approximately 2-3 cm from the face of the gamma camera. Immediately after injection, 100-500 k counts were obtained from the gamma camera and stored on floppy disc. The computer controlled the maximum number of counts that could be stored per image. Sequential images were obtained and stored on disc at 5, 10, 15, 20 and 30 minutes following administration.
After all images were stored, quantitative image analysis was utilized to obtain count densities in regional areas of interest (RAI). The RAIs were delineated as distinct anatomical structures. Three distinct areas were observed.
A ^99m Tc-complex prepared via a stannous chloride reduction of Example 6 was administtered to male albino rabbits weighing 3.0-3.5 kg. […]

[2] = Organ uptake (biodistribution) of 99mTc activity in mice after intravenous administration; type: in vivo; settings: i.v.; for Organ uptake of 99mTc, Carcass / Organ uptake of 99mTc, Intestines / Organ uptake of 99mTc, Kidney / Organ uptake of 99mTc, Liver / Organ uptake of 99mTc, Lung / Organ uptake of 99mTc, Stomach / Organ uptake of 99mTc, Tail: average of four animals ± SD
Description: as §1
Nonfasted male mice (1CR strain) weighing 20-24 grams were administered in the tail vein with 0.2 mL of a ^99m Tc-complex solution. At 15, 30, 60 minutes post administration groups of four animals were sacrificed by cervical dislocation and selected organs removed for ^99m Tc assay in a gross ionization counting chamber. The percentage of the injected dose corrected for ^99m Tc decay was calculated for the various organs at each sacrifice time.
A ^99m Tc-MGHA complex prepared via a dithionite reduction of ^99m TcO4^- of Example 6 was administered to female albino mice weighing 20-24 gm. The test drug was administered through the lateral tail vein at a mass dose of approximately 13.0 mg/kg in a volume of 0.2 mL. The corresponding radioactive dose administered to each animal was 1.5 mCi. After injection, groups of four animals were sacrificed (cervical dislocation) at 15, 30 and 60 minutes. The liver, kidney, lung, heart, stomach and intestines (small and large) were removed and assayed for ^99m Tc activity in a gross ionization counting chamber. Also, the tails and remaining carcasses were individually assayed for ^99m Tc activity.
Knowing the amount of ^99m Tc activity administered (assaying for ^99m Tc in the syringe before and after injection) and the amount assayed in the various organs, the percentage of injected dose (% ID) was calculated as: [formula] All activities (Ci) were initially corrected for ^99m Tc decay back to a fixed starting time using the standard first order differential equation for decay correction (see below): […]
where N0 and N1 are initial and final activities (Ci) respectively. The half-life (T1/2) for ^99m Tc decay is 6.02 hr. The value of t is the elapsed time (hrs.) for the correction.
The results of ^99m Tc uptake in various organs and tissues in mice administered ^99m Tc-MGHA labeled via a dithionite reduction is given in Table 1.
A ^99m Tc-MGHA complex prepared via a stannous chloride reduction of 99mTcO.sbsb.4^- of Example 6 was administered to female albino mice weighing 20-24 gm. The same methods and procedures given in Example 19 were used to calculate the % ID for each organ.

[3] = mice, dithionite reduction, 15 min.
[4] = mice, dithionite reduction, 30 min.
[5] = mice, dithionite reduction, 60 min.

SMILES: CNC(=O)C1CC[S][99Tc-]23(=[O])[S]CC[N]2CC(=O)[N]13 [^99m Tc-MGHA, [2-[[1-(2mercaptoethyl)-2-(methylamino)-2-oxoethyl]-N-(2-mercaptoethyl)glycinato-N,N',S,S']oxotechnetate-99m]
- Distinct areas observed in quantitative image analysis (RAI) ([1]; male albino rabbits, dithionite reduction, ~0.5 mCi, up to 30 minutes): The left and right kidneys and the bladder were clearly defined
- Gamma camera count densities (RAI) ([1]; SnCl2 reduction method): significant count densities in regions where the right and left kidneys were visualized
- Gamma camera count densities (RAI) ([1]; dithionite reduction method): significant count densities in regions where the right and left kidneys were visualized
- Excretion of activity from the body ([2]; mice): rapid excretion of activity from the body
- Total remaining activity (% injected dose) ([2]; mice, 30 minutes): approximately one-half of the injected dose
- Organ uptake of 99mTc, Carcass ([2]; mice, SnCl2 reduction, 15 min.): 17.4 ± 2.8 % Injected Dose
- Organ uptake of 99mTc, Intestines ([2]; mice, SnCl2 reduction, 15 min.): 28.7 ± 6.1 % Injected Dose
- Organ uptake of 99mTc, Kidney ([2]; mice, SnCl2 reduction, 15 min.): 3.3 ± .9 % Injected Dose
- Organ uptake of 99mTc, Liver ([2]; mice, SnCl2 reduction, 15 min.): 13.3 ± 5.4 % Injected Dose
- Organ uptake of 99mTc, Lung ([2]; mice, SnCl2 reduction, 15 min.): .9 ± .4 % Injected Dose
- Organ uptake of 99mTc, Stomach ([2]; mice, SnCl2 reduction, 15 min.): .3 ± .4 % Injected Dose
- Organ uptake of 99mTc, Tail ([2]; mice, SnCl2 reduction, 15 min.): 1.4 ± .7 % Injected Dose
- Organ uptake of 99mTc, Carcass ([2]; mice, SnCl2 reduction, 30 min.): 5.7 ± 2.9 % Injected Dose
- Organ uptake of 99mTc, Intestines ([2]; mice, SnCl2 reduction, 30 min.): 27.3 ± 7.0 % Injected Dose
- Organ uptake of 99mTc, Kidney ([2]; mice, SnCl2 reduction, 30 min.): 1.6 ± .4 % Injected Dose
- Organ uptake of 99mTc, Liver ([2]; mice, SnCl2 reduction, 30 min.): 6.1 ± .9 % Injected Dose
- Organ uptake of 99mTc, Lung ([2]; mice, SnCl2 reduction, 30 min.): .2 ± .2 % Injected Dose
- Organ uptake of 99mTc, Stomach ([2]; mice, SnCl2 reduction, 30 min.): .6 ± .9 % Injected Dose
- Organ uptake of 99mTc, Tail ([2]; mice, SnCl2 reduction, 30 min.): .14 ± .2 % Injected Dose
- Organ uptake of 99mTc, Carcass ([2]; mice, SnCl2 reduction, 60 min.): 12.4 ± 5.1 % Injected Dose
- Organ uptake of 99mTc, Intestines ([2]; mice, SnCl2 reduction, 60 min.): 29.3 ± 10.4 % Injected Dose
- Organ uptake of 99mTc, Kidney ([2]; mice, SnCl2 reduction, 60 min.): 2.3 ± .8 % Injected Dose
- Organ uptake of 99mTc, Liver ([2]; mice, SnCl2 reduction, 60 min.): 7.7 ± 2.0 % Injected Dose
- Organ uptake of 99mTc, Lung ([2]; mice, SnCl2 reduction, 60 min.): .6 ± .3 % Injected Dose
- Organ uptake of 99mTc, Stomach ([2]; mice, SnCl2 reduction, 60 min.): .1 ± .2 % Injected Dose
- Organ uptake of 99mTc, Tail ([2]; mice, SnCl2 reduction, 60 min.): .7 ± .3 % Injected Dose
- Kidney uptake of activity over time ([2]; mice, at the various time intervals examined): declining at the various time intervals examined
- Organ uptake of 99mTc, Carcass [2, 3]: 21.9 ± 2.9 % Injected Dose
- Organ uptake of 99mTc, Intestines [2, 3]: 16.8 ± 3.0 % Injected Dose
- Organ uptake of 99mTc, Kidney [2, 3]: 3.1 ± .6 % Injected Dose
- Organ uptake of 99mTc, Liver [2, 3]: 11.3 ± 1.0 % Injected Dose
- Organ uptake of 99mTc, Lung [2, 3]: .9 ± .2 % Injected Dose
- Organ uptake of 99mTc, Stomach [2, 3]: .3 ± .01 % Injected Dose
- Organ uptake of 99mTc, Tail [2, 3]: 1.7 ± 1.0 % Injected Dose
- Organ uptake of 99mTc, Carcass [2, 4]: 13.4 ± 5.3 % Injected Dose
- Organ uptake of 99mTc, Intestines [2, 4]: 20.5 ± 2.0 % Injected Dose
- Organ uptake of 99mTc, Kidney [2, 4]: 3.4 ± .5 % Injected Dose
- Organ uptake of 99mTc, Liver [2, 4]: 7.6 ± .9 % Injected Dose
- Organ uptake of 99mTc, Lung [2, 4]: .3 ± .1 % Injected Dose
- Organ uptake of 99mTc, Stomach [2, 4]: .1 ± .1 % Injected Dose
- Organ uptake of 99mTc, Tail [2, 4]: .3 ± .1 % Injected Dose
- Organ uptake of 99mTc, Carcass [2, 5]: 18.3 ± 2.5 % Injected Dose
- Organ uptake of 99mTc, Intestines [2, 5]: 16.9 ± 1.4 % Injected Dose
- Organ uptake of 99mTc, Kidney [2, 5]: 3.9 ± .6 % Injected Dose
- Organ uptake of 99mTc, Liver [2, 5]: 10.2 ± 1.6 % Injected Dose
- Organ uptake of 99mTc, Lung [2, 5]: .5 ± .3 % Injected Dose
- Organ uptake of 99mTc, Stomach [2, 5]: .8 ± .9 % Injected Dose
- Organ uptake of 99mTc, Tail [2, 5]: 1.1 ± .4 % Injected Dose
- Kidney uptake ([2]; mice, sacrifice times greater than 15 minutes post injection): little kidney uptake
- Clearance of 99mTc activity out of the body ([2]; mice, within the first 15 minutes): fast clearance out of the body within the first 15 minutes
- Suggested route of 99mTc clearance ([2]; test animals, indirect evidence): possible kidney clearance
